Drawing on the NIST ThermoML archive (doi:10.1021/je200195q), this text covers activity coefficient for 33 molecules.

± gives the expanded uncertainty stated by the source.

A short description of the data set: activity coefficient (dimensionless); of the first substance listed, at infinite dilution; xn = mol fraction of the nth substance listed. Particulars: 101 kPa, Liquid, Chromatography, x1 = 0.

As for `Cc1ccccc1C` [1,2-dimethylbenzene] + CCCCCCCCCCn1cc[n+](CCCCCCCCCC)c1C.O=S(=O)([N-]S(=O)(=O)C(F)(F)F)C(F)(F)F, the activity coefficient was determined as 0.626 ± 0.043 (323.1 K), 0.616 ± 0.043 (333.15 K) and 0.603 ± 0.042 (343.15 K).
On to `Cc1ccccc1C` [1,2-dimethylbenzene] + CCCCCC[n+]1ccn(C)c1.FC(F)(F)C(F)(F)[P-](F)(F)(F)(C(F)(F)C(F)(F)F)C(F)(F)C(F)(F)F, for which the activity coefficient reads like this: (312.8 K) 0.888 ± 0.057; (332.85 K) 0.947 ± 0.06; (354.65 K) 0.957 ± 0.06.
Take `Cc1ccccc1C` [1,2-dimethylbenzene] + CCCCn1cc[n+](C)c1.O=S(=O)([N-]S(=O)(=O)C(F)(F)C(F)(F)F)C(F)(F)C(F)(F)F: the activity coefficient runs as follows: (322.55 K) 1.87 ± 0.13; (342.75 K) 1.89 ± 0.13; (362.65 K) 1.97 ± 0.13.
For `Cc1cccc(C)c1` [1,3-dimethylbenzene] + CCCCCCCCCCn1cc[n+](CCCCCCCCCC)c1C.O=S(=O)([N-]S(=O)(=O)C(F)(F)F)C(F)(F)F, the activity coefficient (323.1 K) is 0.645 ± 0.044, the activity coefficient (333.15 K) was 0.653 ± 0.045 and the activity coefficient (343.15 K) is 0.663 ± 0.045.
For the molecule `Cc1cccc(C)c1` [1,3-dimethylbenzene] + CCCCCC[n+]1ccn(C)c1.FC(F)(F)C(F)(F)[P-](F)(F)(F)(C(F)(F)C(F)(F)F)C(F)(F)C(F)(F)F, the activity coefficient by setting is: (312.8 K) 0.939 ± 0.059; (332.85 K) 0.997 ± 0.062; (354.65 K) 1.01 ± 0.063.
Turning to `Cc1cccc(C)c1` [1,3-dimethylbenzene] + CCCCn1cc[n+](C)c1.O=S(=O)([N-]S(=O)(=O)C(F)(F)C(F)(F)F)C(F)(F)C(F)(F)F, the activity coefficient is 2.02 ± 0.14 (322.55 K), 2.03 ± 0.14 (342.75 K) and 2.09 ± 0.14 (362.65 K).
Take `Cc1ccc(C)cc1` [1,4-dimethylbenzene] + CCCCCCCCCCn1cc[n+](CCCCCCCCCC)c1C.O=S(=O)([N-]S(=O)(=O)C(F)(F)F)C(F)(F)F: the activity coefficient reads like this: (323.1 K) 0.647 ± 0.044; (333.15 K) 0.66 ± 0.045; (343.15 K) 0.657 ± 0.045.
On to `Cc1ccc(C)cc1` [1,4-dimethylbenzene] + CCCCCC[n+]1ccn(C)c1.FC(F)(F)C(F)(F)[P-](F)(F)(F)(C(F)(F)C(F)(F)F)C(F)(F)C(F)(F)F, for which the activity coefficient (312.8 K) was 0.992 ± 0.062, the activity coefficient (332.85 K) came out at 1.03 ± 0.065 and the activity coefficient (354.65 K) is 1 ± 0.063.
For `Cc1ccc(C)cc1` [1,4-dimethylbenzene] + CCCCn1cc[n+](C)c1.O=S(=O)([N-]S(=O)(=O)C(F)(F)C(F)(F)F)C(F)(F)C(F)(F)F, the activity coefficient is, setting by setting: (322.55 K) 2.05 ± 0.14; (342.75 K) 2.03 ± 0.14; (362.65 K) 2 ± 0.14.
As for `C1COCCO1` [1,4-dioxane] + CCCCCCCCCCn1cc[n+](CCCCCCCCCC)c1C.O=S(=O)([N-]S(=O)(=O)C(F)(F)F)C(F)(F)F, the activity coefficient reads like this: (323.1 K) 0.463 ± 0.036; (333.15 K) 0.46 ± 0.036; (343.15 K) 0.453 ± 0.036.
`C1COCCO1` [1,4-dioxane] + CCCCCC[n+]1ccn(C)c1.FC(F)(F)C(F)(F)[P-](F)(F)(F)(C(F)(F)C(F)(F)F)C(F)(F)C(F)(F)F: the activity coefficient (312.8 K) was found to be 0.273 ± 0.03, the activity coefficient (332.85 K) is 0.327 ± 0.032 and the activity coefficient (354.65 K) was 0.339 ± 0.032.
For the molecule `C1COCCO1` [1,4-dioxane] + CCCCn1cc[n+](C)c1.O=S(=O)([N-]S(=O)(=O)C(F)(F)C(F)(F)F)C(F)(F)C(F)(F)F, the activity coefficient is 0.429 ± 0.035 (322.55 K), 0.607 ± 0.042 (342.75 K) and 0.576 ± 0.041 (362.65 K).
With `C1COCCO1` [1,4-dioxane] + CCn1cc[n+](C)c1.CS(=O)(=O)[O-], the activity coefficient is, setting by setting: (312.55 K) 2.67 ± 0.18; (322.45 K) 2.67 ± 0.18; (332.45 K) 2.66 ± 0.18.
Consider `C#CCCCCC` [1-heptyne] + CCCCCCCCCCn1cc[n+](CCCCCCCCCC)c1C.O=S(=O)([N-]S(=O)(=O)C(F)(F)F)C(F)(F)F, for which the activity coefficient (323.1 K) came out at 1.06 ± 0.067, the activity coefficient (333.15 K) amounted to 1.06 ± 0.067 and the activity coefficient (343.15 K) was determined as 1.06 ± 0.067.
Consider `C#CCCCCC` [1-heptyne] + CCCCCC[n+]1ccn(C)c1.FC(F)(F)C(F)(F)[P-](F)(F)(F)(C(F)(F)C(F)(F)F)C(F)(F)C(F)(F)F, for which the activity coefficient reads like this: (312.8 K) 2.54 ± 0.17; (332.85 K) 2.5 ± 0.17; (354.65 K) 2.32 ± 0.16.
In the case of `C#CCCCCC` [1-heptyne] + CCCCn1cc[n+](C)c1.O=S(=O)([N-]S(=O)(=O)C(F)(F)C(F)(F)F)C(F)(F)C(F)(F)F, the activity coefficient (322.55 K) is 3.91 ± 0.27, the activity coefficient (342.75 K) was 3.76 ± 0.26 and the activity coefficient (362.65 K) is 3.58 ± 0.24.
In the case of `C#CCCCC` [1-hexyne] + CCCCCCCCCCn1cc[n+](CCCCCCCCCC)c1C.O=S(=O)([N-]S(=O)(=O)C(F)(F)F)C(F)(F)F, the activity coefficient is 0.925 ± 0.058 (323.1 K), 0.917 ± 0.058 (333.15 K) and 0.899 ± 0.057 (343.15 K).
Regarding `C#CCCCC` [1-hexyne] + CCCCCC[n+]1ccn(C)c1.FC(F)(F)C(F)(F)[P-](F)(F)(F)(C(F)(F)C(F)(F)F)C(F)(F)C(F)(F)F, the activity coefficient runs as follows: (312.8 K) 1.94 ± 0.13; (332.85 K) 1.89 ± 0.13; (354.65 K) 1.75 ± 0.12.
Turning to `C#CCCCC` [1-hexyne] + CCCCn1cc[n+](C)c1.O=S(=O)([N-]S(=O)(=O)C(F)(F)C(F)(F)F)C(F)(F)C(F)(F)F, the activity coefficient is, setting by setting: (322.55 K) 2.86 ± 0.2; (342.75 K) 2.73 ± 0.19; (362.65 K) 2.64 ± 0.18.
For `CCC[N+](=O)[O-]` [1-nitropropane] + CCCCCCCCCCn1cc[n+](CCCCCCCCCC)c1C.O=S(=O)([N-]S(=O)(=O)C(F)(F)F)C(F)(F)F, the activity coefficient runs as follows: (323.1 K) 0.504 ± 0.038; (333.15 K) 0.487 ± 0.037; (343.15 K) 0.479 ± 0.037.
Consider `CCC[N+](=O)[O-]` [1-nitropropane] + CCCCCC[n+]1ccn(C)c1.FC(F)(F)C(F)(F)[P-](F)(F)(F)(C(F)(F)C(F)(F)F)C(F)(F)C(F)(F)F, for which the activity coefficient is, setting by setting: (312.8 K) 0.452 ± 0.036; (332.85 K) 0.451 ± 0.036; (354.65 K) 0.436 ± 0.035.
Regarding `CCC[N+](=O)[O-]` [1-nitropropane] + CCCCn1cc[n+](C)c1.O=S(=O)([N-]S(=O)(=O)C(F)(F)C(F)(F)F)C(F)(F)C(F)(F)F, the activity coefficient reads like this: (322.55 K) 0.769 ± 0.05; (342.75 K) 0.821 ± 0.053; (362.65 K) 0.756 ± 0.05.
For the molecule `CCC[N+](=O)[O-]` [1-nitropropane] + CCn1cc[n+](C)c1.CS(=O)(=O)[O-], the activity coefficient (312.55 K) amounted to 4.19 ± 0.28, the activity coefficient (322.45 K) came to 2.7 ± 0.18 and the activity coefficient (332.45 K) was determined as 1.73 ± 0.12.
Take `OCC(F)(F)F` [2,2,2-trifluoroethanol] + CCCCCCCCCCn1cc[n+](CCCCCCCCCC)c1C.O=S(=O)([N-]S(=O)(=O)C(F)(F)F)C(F)(F)F: the activity coefficient runs as follows: (323.1 K) 0.399 ± 0.034; (333.15 K) 0.379 ± 0.033; (343.15 K) 0.355 ± 0.032.
Turning to `OCC(F)(F)F` [2,2,2-trifluoroethanol] + CCCCCC[n+]1ccn(C)c1.FC(F)(F)C(F)(F)[P-](F)(F)(F)(C(F)(F)C(F)(F)F)C(F)(F)C(F)(F)F, the activity coefficient (312.8 K) was 0.987 ± 0.062, the activity coefficient (332.85 K) came out at 0.891 ± 0.057 and the activity coefficient (354.65 K) turned out to be 0.728 ± 0.048.
For the molecule `OCC(F)(F)F` [2,2,2-trifluoroethanol] + CCCCn1cc[n+](C)c1.O=S(=O)([N-]S(=O)(=O)C(F)(F)C(F)(F)F)C(F)(F)C(F)(F)F, the activity coefficient is 0.457 ± 0.036 (322.55 K), 0.412 ± 0.034 (342.75 K) and 0.373 ± 0.033 (362.65 K).
Consider `CC(C)CC(C)(C)C` [2,2,4-trimethylpentane] + CCCCCC[n+]1ccn(C)c1.FC(F)(F)C(F)(F)[P-](F)(F)(F)(C(F)(F)C(F)(F)F)C(F)(F)C(F)(F)F, for which the activity coefficient runs as follows: (312.8 K) 7.98 ± 0.54; (332.85 K) 7.13 ± 0.49; (354.65 K) 6.18 ± 0.42.
`CC(C)CC(C)(C)C` [2,2,4-trimethylpentane] + CCCCn1cc[n+](C)c1.O=S(=O)([N-]S(=O)(=O)C(F)(F)C(F)(F)F)C(F)(F)C(F)(F)F: the activity coefficient is, setting by setting: (322.55 K) 13.3 ± 0.91; (342.75 K) 11.7 ± 0.8; (362.65 K) 10.5 ± 0.72.
Take `CC(C)CC(C)(C)C` [2,2,4-trimethylpentane] + CCn1cc[n+](C)c1.CS(=O)(=O)[O-]: the activity coefficient reads like this: (312.55 K) 445 ± 31; (322.45 K) 387 ± 27; (332.45 K) 334 ± 23.
Take `CC(C)CO` [2-methyl-1-propanol] + CCCCCCCCCCn1cc[n+](CCCCCCCCCC)c1C.O=S(=O)([N-]S(=O)(=O)C(F)(F)F)C(F)(F)F: the activity coefficient was 1.3 ± 0.084 (323.1 K), 1.17 ± 0.075 (333.15 K) and 1.06 ± 0.067 (343.15 K).
For the molecule `CC(C)CO` [2-methyl-1-propanol] + CCCCCC[n+]1ccn(C)c1.FC(F)(F)C(F)(F)[P-](F)(F)(F)(C(F)(F)C(F)(F)F)C(F)(F)C(F)(F)F, the activity coefficient reads like this: (312.8 K) 2.77 ± 0.19; (332.85 K) 2.13 ± 0.14; (354.65 K) 1.62 ± 0.11.
Regarding `CC(C)CO` [2-methyl-1-propanol] + CCCCn1cc[n+](C)c1.O=S(=O)([N-]S(=O)(=O)C(F)(F)C(F)(F)F)C(F)(F)C(F)(F)F, the activity coefficient turned out to be 2.26 ± 0.15 (322.55 K), 1.84 ± 0.12 (342.75 K) and 1.57 ± 0.1 (362.65 K).
With `CCC(C)CC` [3-methylpentane] + CCCCCCCCCCn1cc[n+](CCCCCCCCCC)c1C.O=S(=O)([N-]S(=O)(=O)C(F)(F)F)C(F)(F)F, the activity coefficient by setting is: (323.1 K) 1.71 ± 0.11; (333.15 K) 1.68 ± 0.11; (343.15 K) 1.63 ± 0.11.
